Legend:
[1] = test system: albino rats; experiment: rat hindpaw thermal escape paradigm (hindpaw withdrawal test for analgesia, acute pain); format: in vivo; settings: for analgesic effect of co-administration with acetaminophen compared to either compound given alone: hydroxyazapirone 5 mg/kg + acetaminophen 300 mg/kg, ip; for hindpaw thermal escape response/latency compared to vehicle (saline+PETW): n=5-8 rats per group
Excerpt: To assess the thermally evoked paw-withdrawal response, a commercially available device was used. Specifics of device construction and operation have been published previously (Dirig D M, Salami A, Rathbun M L, Ozaki G T, Yaksh T L. Characterization of variables defining hindpaw withdrawal latency evoked by radiant thermal stimuli. J Neurosci Methods. Oct. 3, 1997; 76(2):183-91). This device is comprised of a glass surface on which the rats were placed individually in Plexiglas cubicles (9×22×25 cm). The surface is maintained at 30° C. by a feedback-controlled, under-glass, forced-air heating system. The thermal nociceptive stimulus originates from a projection bulb below the glass that can be manipulated in a two-dimensional axis on ball bearing slides. This apparatus allows the stimulus to be delivered separately to each hind paw with the aid of an angled mirror mounted on the stimulus source. A timer is actuated with the light source, and escape latency is defined as the time between stimulus onset and the display of a brisk paw withdrawal (detected by photodiode motion sensors that stops the timer and terminates the stimulus; cut-off time for a non-response is 20 sec which triggers automatic termination of the stimulus). In the present study, animals are placed in test boxes for 30 min acclimation and then baseline escape latency is assessed separately for each hindpaw (left and right) at −15 min. All drugs are delivered at 0 min by the intraperitoneal (i.p.) route in a volume of 3 ml/kg. The vehicle for 6-hydroxybuspirone was 0.9% sodium chloride (Saline). For 3-hydroxygepirone the vehicle was deionized H2O plus a few drops of hydrochloric acid. For acetaminophen (Sigma, A7085) the vehicle was 40% polyethylene glycol 400 (PEG-400), 10% EtOH, 15% Tween 80, and 35% deionized H2O (PETW). Acetaminophen was disolved sequentially in two parts: 1) first into a solution of 80% PEG 400+20% EtOH, and 2) then slowly added to it was an equal volume of 30% Tween 80+70% deionized H2O (sonicated as needed). Each animal received two injections at time zero. Specifically, animals were tested in one of the following 6 treatment conditions (abbreviations used in figures are shown under “Key” below):
Following drug administration, thermal escape latencies are measured at 15, 30, 60, 90 and 120 min (mean of both paws is used for statistical analysis).

[2] = test system: mouse; experiment: mouse hot plate test (procedure of Eddy, et al.); format: in vivo; settings: 6-hydroxybuspirone to acetaminophen weight ratios of 1:3, 1:10 and 1:30
[3] = hydroxyazapirone alone, 5 mg/kg ip
[4] = acetaminophen alone, 300 mg/kg ip

Row | SMILES | analgesic effect of co-administration with acetaminophen compared to either compound given alone [1] | hindpaw thermal escape response/latency compared to vehicle (saline+PETW) [1, 3] | potentiation of acetaminophen in hot plate test [2] | time of peak analgesic effect post injection [1, 4] | hindpaw thermal escape response/latency compared to vehicle (saline+PETW) [1, 4] | time of peak analgesic effect post injection ([1]; 3-hydroxygepirone alone, 5 mg/kg ip)
1 | O=C1CC2(CCCC2)C(O)C(=O)N1CCCCN1CCN(c2ncccn2)CC1 (centres unmarked) [6-hydroxybuspirone, 6-Hydroxy-8-[4-[4-(2-pyrimidinyl)-piperazinyl]-butyl]-8-azaspiro[4.5]-7,9-dione] | analgesic enhancing effect | elevated significantly above vehicle | potentiation of acetaminophen | – | – | –
2 | CC(=O)Nc1ccc(O)cc1 [acetaminophen, reference compound] | – | – | – | 120 min | elevated significantly above vehicle | –
3 | CC1(C)CC(=O)N(CCCCN2CCN(c3ncccn3)CC2)C(=O)C1O (centres unmarked) [3-hydroxygepirone, 4,4-Dimethyl-3-hydroxy-1-[4-[4-(2-pyrimidinyl)-1-piperazinyl]butyl]-2,6-piperidinedione] | analgesic enhancing effect | elevated significantly above vehicle | – | – | – | 120 min

— patent US6593331B2, “Method for treatment of pain” (Laboratories UPSA, priority 2001, dated 2003)
